# Measured values as given in patent publication US20250368628A1, “METHODS AND COMPOUNDS FOR MODULATING INHERITED GENETIC DISEASES” (Design Therapeutics, Inc., priority 2022, published 2025).
# Where two headings read alike, the source gives them in different places.
# What was measured:
# [1] = test system: Myotonic Dystrophy 1 affected patient fibroblasts (Coriel GM04602; 1600 CTG repeats); test: DM1 foci reduction assay (EC50 assay; CAG10-Cy3 FISH, foci per nucleus); format: cell-based; details: Homo sapiens, Fibroblast
# Summary of the method: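 GM04602 DM1 patient fibroblasts (1600 CTG repeats) seeded 24 h, then treated 48 h at 37 °C with an 8-point 1:3 dose series from 3 μM. Cells PFA-fixed, ethanol-permeabilized and hybridized overnight with 5 nM CAG10-Cy3 probe, DAPI counterstained. Imaged at 20×, 4 fields per well, as average foci per nucleus.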
# F35T cells = test: Foci reduction in FECD (CAG10-Cy3 FISH, foci per nucleus); format: cell-based
# Summary of the method: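 F35T cells, 5000 per well, were treated for 48 h at 37 °C, 5% CO2 in an 8-point dose response. Cells were then fixed in 4% PFA, permeabilized in 70% ethanol and hybridized overnight at 37 °C with a CAG10-Cy3 probe in 30% formamide/2×SSC. After DAPI staining, imaging gave foci per nucleus.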
# [2] = DM1 patient fibroblasts, 48 h treatment, foci per nucleus, read-out: DM1 EC50, 48 h
# [3] = F35T cells, 48 h treatment, foci per nucleus, read-out: FECD EC50, 48 h
Structure (SMILES),"EC50 [1, 2]",EC50 (F35T cells; [3]),further results
CC(C)N1CCC(C#CC#CC2CCN(CCOCCOCCOCCNC(=O)CCNC(=O)c3nc(NC(=O)c4cc(NC(=O)CCNC(=O)c5nc(NC(=O)CCCNC(=O)c6cc(NC(=O)c7nc(NC(=O)CCNC(=O)c8cc(NC(=O)c9nccn9C)cn8C)cn7C)cn6C)cn5C)cn4C)cn3C)CC2)CC1 [Compound B-124],100 to 500 nM,500 to 1000 nM,
Cn1cc(NC(=O)c2nc(NC(=O)CCNC(=O)c3cc(NC(=O)c4nccn4C)cn3C)cn2C)cc1C(=O)NCCCC(=O)Nc1cn(C)c(C(=O)NCCC(=O)Nc2cc(C(=O)Nc3cn(C)c(C(=O)NCCC(=O)N4CC(c5cnc(CN(CCCC(=O)O)CCCC(=O)O)[nH]5)C4)n3)n(C)c2)n1 [Compound B-371],> 1000 nM,> 1000 nM,
Cn1cc(NC(=O)c2nc(NC(=O)CCNC(=O)c3cc(NC(=O)c4nccn4C)cn3C)cn2C)cc1C(=O)NCCCC(=O)Nc1cn(C)c(C(=O)NCCC(=O)Nc2cc(C(=O)Nc3cn(C)c(C(=O)NCCC(=O)NC(CO)(CO)CO)n3)n(C)c2)n1 [Compound B-46],500 to 1000 nM,100 to 500 nM,
CCN(CC)CCCC[C@H](NC(C)=O)C(=O)Nc1ccc(OCCOCCOCCOCCOCCOCCOCCNC(=O)CCNC(=O)c2nc(NC(=O)c3cc(NC(=O)CCNC(=O)c4nc(NC(=O)CCCNC(=O)c5cc(NC(=O)c6nc(NC(=O)CCNC(=O)c7cc(NC(=O)c8nccn8C)cn7C)cn6C)cn5C)cn4C)cn3C)cn2C)cc1 [Compound B-144],500 to 1000 nM,500 to 1000 nM,
CCNC(=O)c1nc(NC(=O)c2cc(NC(=O)CCNC(=O)c3nc(NC(=O)CCCNC(=O)c4cc(NC(=O)c5nc(NC(=O)CCNC(=O)c6cc(NC(=O)c7nccn7C)cn6C)cn5C)cn4C)cn3C)cn2C)cn1C [Compound B-312],< 100 nM,< 100 nM,
Cn1cc(NC(=O)c2nc(NC(=O)CCNC(=O)c3cc(NC(=O)c4nccn4C)cn3C)cn2C)cc1C(=O)NCCCC(=O)Nc1cn(C)c(C(=O)NCCC(=O)Nc2cc(C(=O)Nc3cn(C)c(C(=O)NCCCCN=[N+]=[N-])n3)n(C)c2)n1 [Compound B-203],< 100 nM,< 100 nM,
CN(CCCNC(=O)c1cccc(C(=O)O)c1)CCCNC(=O)c1nc(NC(=O)c2cc(NC(=O)CCNC(=O)c3nc(NC(=O)CCCNC(=O)c4cc(NC(=O)c5nc(NC(=O)CCNC(=O)c6cc(NC(=O)c7nccn7C)cn6C)cn5C)cn4C)cn3C)cn2C)cn1C [Compound B-109],100 to 500 nM,100 to 500 nM,
CCCNC(=O)c1nc(NC(=O)c2cc(NC(=O)CCNC(=O)c3nc(NC(=O)CCCNC(=O)c4cc(NC(=O)c5nc(NC(=O)CCNC(=O)c6cc(NC(=O)c7nc(NC=O)cn7C)cn6C)cn5C)cn4C)cn3C)cn2C)cn1C [Compound B-327],< 100 nM,< 100 nM,
CCN(CC)CCCC[C@H](NC(C)=O)C(=O)Nc1ccc(OCCOCCOCCOCCOCCNC(=O)CCNC(=O)c2nc(NC(=O)c3cc(NC(=O)CCNC(=O)c4nc(NC(=O)CCCNC(=O)c5cc(NC(=O)c6nc(NC(=O)CCNC(=O)c7cc(NC(=O)c8nccn8C)cn7C)cn6C)cn5C)cn4C)cn3C)cn2C)cc1 [Compound B-146],100 to 500 nM,100 to 500 nM,
Cn1cc(NC(=O)c2nc(NC(=O)CCNC(=O)c3cc(NC(=O)c4nccn4C)cn3C)cn2C)cc1C(=O)NCCCC(=O)Nc1cn(C)c(C(=O)NCCC(=O)Nc2cc(C(=O)Nc3cn(C)c(C(=O)NCCC(=O)N4CCN(C5CCN(C(=O)OCc6ccccc6)CC5)CC4)n3)n(C)c2)n1 [Compound B-32],< 100 nM,< 100 nM,
CNC(=O)CCNC(=O)c1nc(NC(=O)c2cc(NC(=O)CCNC(=O)c3nc(NC(=O)CCCNC(=O)c4cc(NC(=O)c5nc(NC(=O)CCNC(=O)c6cc(NC(=O)c7nccn7C)cn6C)cn5C)cn4C)cn3C)cn2C)cn1C [Compound B-309],500 to 1000 nM,< 100 nM,
"Cn1cc(NC(=O)c2nc(NC(=O)CCNC(=O)c3cc(NC(=O)c4nccn4C)cn3C)cn2C)cc1C(=O)NCCCC(=O)Nc1cn(C)c(C(=O)NCCC(=O)Nc2cc(C(=O)Nc3cn(C)c(C(=O)NCCC(=O)N4CCC(C#CC#CC5CCNCC5)CC4)n3)n(C)c2)n1 [Compound B-126, 1-Methyl-4-(3-{[1-methyl-4-(1-methylimidazole-2-amido)pyrrol-2-yl]formamido}propanamido)-N-(1-methyl-5-{[3-({1-methyl-2-[(2-{[1-methyl-5-({1-methyl-2-[(3-oxo-3-{4-[4-(piperidin-4-yl)buta-1,3-diyn-1-yl]piperidin-1-yl}propyl)carbamoyl]imidazol-4-yl}carbamoyl)pyrrol-3-yl]carbamoyl}ethyl)carbamoyl]imidazol-4-yl}carbamoyl)propyl]carbamoyl}pyrrol-3-yl)imidazole-2-carboxamide]",< 100 nM,< 100 nM,
Cn1cc(NC(=O)c2nc(NC(=O)CCNC(=O)c3cc(NC(=O)c4nccn4C)cn3C)cn2C)cc1C(=O)NCCCC(=O)Nc1cn(C)c(C(=O)NCCC(=O)Nc2cc(C(=O)Nc3cn(C)c(C(=O)NCCC(=O)NC4COP(=O)(Oc5ccccc5Cl)OC4)n3)n(C)c2)n1 (centres unmarked) [Compound B-391],,,"EC50 ([1]; 48 h, read-out: DM1 EC50, 48 h (nM)): > 1000 nM; EC50 (F35T cells; 48 h, read-out: FECD EC50, 48 h (nM)): > 1000 nM"
"CCCNC(=O)CCNC(=O)c1nc(NC(=O)c2cc(NC(=O)CCNC(=O)c3nc(NC(=O)[C@H](N)CCNC(=O)c4cc(NC(=O)c5nc(NC(=O)CCNC(=O)c6cc(NC(=O)c7nccn7C)cn6C)cn5C)cn4C)cn3C)cn2C)cn1C [Compound B-3, N-(5-{[(3R)-3-amino-3-[(1-methyl-2-{[2-({1-methyl-5-[(1-methyl-2-{[2-(propylcarbamoyl)ethyl]carbamoyl}imidazol-4-yl)carbamoyl]pyrrol-3-yl}carbamoyl)ethyl]carbamoyl}imidazol-4-yl)carbamoyl]propyl]carbamoyl}-1-methylpyrrol-3-yl)-1-methyl-4-(3-{[1-methyl-4-(1-methylimidazole-2-amido)pyrrol-2-yl]formamido}propanamido)imidazole-2-carboxamide]",< 100 nM,500 to 1000 nM,
CN(C)CCCCNC(=O)c1nc(NC(=O)c2cc(NC(=O)CCNC(=O)c3nc(NC(=O)C[C@H](CNC(=O)c4cc(NC(=O)c5nc(NC(=O)CCNC(=O)c6cc(NC(=O)c7nccn7C)cn6C)cn5C)cn4C)NC(=O)c4ccccc4)cn3C)cn2C)cn1C [Compound B-424],,,"EC50 ([1]; DM1 patient fibroblasts, foci per nucleus, 48 h treatment, read-out: DM1 EC50, 48 h): 100 to 500 nM; EC50 (F35T cells; F35T cells, foci per nucleus, 48 h treatment, read-out: FECD EC50, 48 h): 100 to 500 nM"
CCCNC(=O)CCNC(=O)c1nc(NC(=O)c2cc(NC(=O)CCNC(=O)c3nc(NC(=O)CCCNC(=O)c4cc(NC(=O)c5nc(NC(=O)CCNC(=O)c6cc(NC(=O)c7nccn7C)cn6C)cn5C)cn4CCCN)cn3C)cn2C)cn1C [Compound B-272],100 to 500 nM,< 100 nM,
CCCCn1cc(NC(=O)c2nc(NC(=O)CCNC(=O)c3cc(NC(=O)c4nccn4C)cn3C)cn2C)cc1C(=O)NCCCC(=O)Nc1cn(C)c(C(=O)NCCC(=O)Nc2cc(C(=O)Nc3cn(C)c(C(=O)NCCC(=O)NCCC)n3)n(C)c2)n1 [Compound B-321],< 100 nM,< 100 nM,
Cn1cc(NC(=O)c2nc(NC(=O)CCNC(=O)c3cc(NC(=O)c4nccn4C)cn3C)cn2C)cc1C(=O)NCCCC(=O)Nc1cn(C)c(C(=O)NCCC(=O)Nc2cc(C(=O)Nc3cn(C)c(C(=O)NCCC(=O)N4CCN(C5CCNCC5)CC4)n3)n(C)c2)n1 [Compound B-117],100 to 500 nM,500 to 1000 nM,
CCCCn1cc(NC(=O)c2nc(NC(=O)CCNC(=O)c3cc(NC(=O)c4nccn4C)cn3C)cn2C)cc1C(=O)NCC[C@@H](N)C(=O)Nc1cn(C)c(C(=O)NCCC(=O)Nc2cc(C(=O)Nc3cn(C)c(C(=O)NCCC(=O)N4CCN(C)CC4)n3)n(C)c2)n1 [Compound B-408],100 to 500 nM,100 to 500 nM,
